Reference: PMC11702208 (RSC Advances, 2025)

Columns and labels:
[1] = tested on: MDA-MB-435; test: NCI cytotoxicity screen; type: cell-based, human; conditions: 10.0 μM one dose
[2] = tested on: UO-31; test: NCI cytotoxicity screen; type: cell-based, human; conditions: 10.0 μM one dose
[3] = tested on: SF-268; test: NCI cytotoxicity screen; type: cell-based, human; conditions: 10.0 μM one dose
[4] = tested on: KM12; test: NCI cytotoxicity screen; type: cell-based, human; conditions: 10.0 μM one dose; KM-12
[5] = tested on: LOX IMVI; test: NCI cytotoxicity screen; type: cell-based, human; conditions: 10.0 μM one dose
[6] = tested on: HT29; test: NCI cytotoxicity screen; type: cell-based, human; conditions: 10.0 μM one dose; HT-29
[7] = tested on: A549/ATCC; test: NCI cytotoxicity screen; type: cell-based, human; conditions: 10.0 μM one dose; A549/ATCC
[8] = tested on: T-47D; test: NCI cytotoxicity screen; type: cell-based, human; conditions: 10.0 μM one dose; T-47D
[9] = target: CDK9 (Homo sapiens, UniProt P50750); test: biochemical; conditions: IC50 CDK9 inhibition
CDK9, sequence (P50750 whole entry): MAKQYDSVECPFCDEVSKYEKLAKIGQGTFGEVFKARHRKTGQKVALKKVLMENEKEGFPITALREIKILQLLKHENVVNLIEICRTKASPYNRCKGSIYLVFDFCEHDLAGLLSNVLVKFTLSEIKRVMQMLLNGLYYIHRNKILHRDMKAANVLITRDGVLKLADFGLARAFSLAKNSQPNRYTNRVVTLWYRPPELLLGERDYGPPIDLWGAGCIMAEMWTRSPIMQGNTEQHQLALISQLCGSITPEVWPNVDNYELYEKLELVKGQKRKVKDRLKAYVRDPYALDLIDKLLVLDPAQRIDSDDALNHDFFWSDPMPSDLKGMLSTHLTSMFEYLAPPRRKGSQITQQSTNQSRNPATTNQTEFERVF
CDK9, sequence (O60563 whole entry partner): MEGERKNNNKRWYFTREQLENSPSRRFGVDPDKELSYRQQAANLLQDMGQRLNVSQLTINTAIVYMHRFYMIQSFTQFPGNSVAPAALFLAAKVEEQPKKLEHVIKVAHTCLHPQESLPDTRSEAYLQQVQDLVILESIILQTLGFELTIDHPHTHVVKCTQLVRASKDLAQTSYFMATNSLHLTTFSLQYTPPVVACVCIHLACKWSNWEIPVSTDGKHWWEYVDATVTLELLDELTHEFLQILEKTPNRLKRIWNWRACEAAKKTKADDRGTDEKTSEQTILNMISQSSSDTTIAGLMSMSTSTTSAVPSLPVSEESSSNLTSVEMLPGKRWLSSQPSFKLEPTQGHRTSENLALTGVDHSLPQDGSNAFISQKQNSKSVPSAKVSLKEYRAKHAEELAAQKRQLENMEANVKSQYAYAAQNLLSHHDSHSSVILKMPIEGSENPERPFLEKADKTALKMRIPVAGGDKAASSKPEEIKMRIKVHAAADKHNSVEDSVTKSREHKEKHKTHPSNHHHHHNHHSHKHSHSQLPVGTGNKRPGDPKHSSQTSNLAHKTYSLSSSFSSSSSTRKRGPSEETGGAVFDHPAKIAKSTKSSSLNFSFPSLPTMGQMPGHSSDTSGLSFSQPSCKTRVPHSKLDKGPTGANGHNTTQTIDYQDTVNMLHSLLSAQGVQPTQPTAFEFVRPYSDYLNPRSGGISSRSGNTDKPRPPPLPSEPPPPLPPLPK

[10] = tested on: NCI-H226; test: NCI cytotoxicity screen; type: cell-based, human; conditions: 10.0 μM one dose
[11] = tested on: SK-MEL-5; test: NCI cytotoxicity screen; type: cell-based, human; conditions: 10.0 μM one dose
[12] = tested on: OVCAR-3; test: NCI cytotoxicity screen; type: cell-based, human; conditions: 10.0 μM one dose; OVCAR-3
[13] = tested on: MDA-MB-231/ATCC; test: NCI cytotoxicity screen; type: cell-based, human; conditions: 10.0 μM one dose; MDA-MB-231/ATCC
[14] = target: EGFR (Homo sapiens, UniProt P00533); test: biochemical; conditions: IC50 EGFR inhibition
EGFR, sequence (P00533 25-1210): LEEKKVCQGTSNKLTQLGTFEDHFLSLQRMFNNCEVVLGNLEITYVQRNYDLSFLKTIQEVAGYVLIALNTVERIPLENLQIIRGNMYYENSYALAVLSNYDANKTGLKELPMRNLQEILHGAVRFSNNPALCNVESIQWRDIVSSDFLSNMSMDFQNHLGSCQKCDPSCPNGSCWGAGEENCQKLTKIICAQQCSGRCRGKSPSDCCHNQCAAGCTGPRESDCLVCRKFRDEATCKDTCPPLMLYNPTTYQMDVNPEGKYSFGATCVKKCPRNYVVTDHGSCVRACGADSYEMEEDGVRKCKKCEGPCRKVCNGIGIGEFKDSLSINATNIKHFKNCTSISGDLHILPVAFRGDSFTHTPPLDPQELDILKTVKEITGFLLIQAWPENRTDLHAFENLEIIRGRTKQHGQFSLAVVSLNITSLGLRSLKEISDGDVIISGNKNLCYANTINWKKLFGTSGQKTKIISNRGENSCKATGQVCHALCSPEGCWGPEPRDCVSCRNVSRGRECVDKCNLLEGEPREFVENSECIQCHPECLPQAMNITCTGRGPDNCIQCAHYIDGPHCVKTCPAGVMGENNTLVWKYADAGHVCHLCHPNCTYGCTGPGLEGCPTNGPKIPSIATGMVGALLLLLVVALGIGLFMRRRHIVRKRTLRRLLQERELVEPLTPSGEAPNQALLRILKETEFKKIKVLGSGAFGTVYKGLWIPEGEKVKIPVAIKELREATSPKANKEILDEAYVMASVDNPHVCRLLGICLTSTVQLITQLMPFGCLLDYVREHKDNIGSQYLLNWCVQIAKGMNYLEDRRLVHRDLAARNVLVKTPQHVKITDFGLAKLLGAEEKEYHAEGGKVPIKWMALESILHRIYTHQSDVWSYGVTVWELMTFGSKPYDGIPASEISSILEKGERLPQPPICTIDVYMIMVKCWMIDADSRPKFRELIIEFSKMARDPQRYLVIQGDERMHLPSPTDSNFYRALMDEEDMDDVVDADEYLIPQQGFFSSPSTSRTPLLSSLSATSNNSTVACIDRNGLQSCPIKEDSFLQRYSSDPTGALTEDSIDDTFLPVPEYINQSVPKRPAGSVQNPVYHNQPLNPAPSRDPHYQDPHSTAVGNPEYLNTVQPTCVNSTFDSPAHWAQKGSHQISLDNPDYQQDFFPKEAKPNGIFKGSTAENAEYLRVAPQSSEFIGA

[15] = tested on: K-562; conditions: 10.0 μM one dose
[16] = tested on: UACC-62; test: NCI cytotoxicity screen; type: cell-based, human; conditions: 10.0 μM one dose
[17] = tested on: CCRF-CEM; test: NCI cytotoxicity screen; type: cell-based, human; conditions: 10.0 μM one dose
[18] = tested on: SNB-75; test: NCI cytotoxicity screen; type: cell-based, human; conditions: 10.0 μM one dose
[19] = tested on: SNB-19; test: NCI cytotoxicity screen; type: cell-based, human; conditions: 10.0 μM one dose
[20] = tested on: HCT-15; test: NCI cytotoxicity screen; type: cell-based, human; conditions: 10.0 μM one dose
[21] = tested on: NCI-H522; test: NCI cytotoxicity screen; type: cell-based, human; conditions: 10.0 μM one dose
[22] = tested on: EKVX; test: NCI cytotoxicity screen; type: cell-based, human; conditions: 10.0 μM one dose
[23] = tested on: MOLT-4; test: NCI cytotoxicity screen; type: cell-based, human; conditions: 10.0 μM one dose
[24] = tested on: HS 578T; test: NCI cytotoxicity screen; type: cell-based, human; conditions: 10.0 μM one dose; HS-578T
[25] = tested on: RXF 393; test: NCI cytotoxicity screen; type: cell-based, human; conditions: 10.0 μM one dose
[26] = target: HER2 (Homo sapiens, UniProt P04626); test: HER2 tyrosine kinase assay; type: biochemical; conditions: IC50 HER2 inhibition
HER2, sequence (P04626 23-1255): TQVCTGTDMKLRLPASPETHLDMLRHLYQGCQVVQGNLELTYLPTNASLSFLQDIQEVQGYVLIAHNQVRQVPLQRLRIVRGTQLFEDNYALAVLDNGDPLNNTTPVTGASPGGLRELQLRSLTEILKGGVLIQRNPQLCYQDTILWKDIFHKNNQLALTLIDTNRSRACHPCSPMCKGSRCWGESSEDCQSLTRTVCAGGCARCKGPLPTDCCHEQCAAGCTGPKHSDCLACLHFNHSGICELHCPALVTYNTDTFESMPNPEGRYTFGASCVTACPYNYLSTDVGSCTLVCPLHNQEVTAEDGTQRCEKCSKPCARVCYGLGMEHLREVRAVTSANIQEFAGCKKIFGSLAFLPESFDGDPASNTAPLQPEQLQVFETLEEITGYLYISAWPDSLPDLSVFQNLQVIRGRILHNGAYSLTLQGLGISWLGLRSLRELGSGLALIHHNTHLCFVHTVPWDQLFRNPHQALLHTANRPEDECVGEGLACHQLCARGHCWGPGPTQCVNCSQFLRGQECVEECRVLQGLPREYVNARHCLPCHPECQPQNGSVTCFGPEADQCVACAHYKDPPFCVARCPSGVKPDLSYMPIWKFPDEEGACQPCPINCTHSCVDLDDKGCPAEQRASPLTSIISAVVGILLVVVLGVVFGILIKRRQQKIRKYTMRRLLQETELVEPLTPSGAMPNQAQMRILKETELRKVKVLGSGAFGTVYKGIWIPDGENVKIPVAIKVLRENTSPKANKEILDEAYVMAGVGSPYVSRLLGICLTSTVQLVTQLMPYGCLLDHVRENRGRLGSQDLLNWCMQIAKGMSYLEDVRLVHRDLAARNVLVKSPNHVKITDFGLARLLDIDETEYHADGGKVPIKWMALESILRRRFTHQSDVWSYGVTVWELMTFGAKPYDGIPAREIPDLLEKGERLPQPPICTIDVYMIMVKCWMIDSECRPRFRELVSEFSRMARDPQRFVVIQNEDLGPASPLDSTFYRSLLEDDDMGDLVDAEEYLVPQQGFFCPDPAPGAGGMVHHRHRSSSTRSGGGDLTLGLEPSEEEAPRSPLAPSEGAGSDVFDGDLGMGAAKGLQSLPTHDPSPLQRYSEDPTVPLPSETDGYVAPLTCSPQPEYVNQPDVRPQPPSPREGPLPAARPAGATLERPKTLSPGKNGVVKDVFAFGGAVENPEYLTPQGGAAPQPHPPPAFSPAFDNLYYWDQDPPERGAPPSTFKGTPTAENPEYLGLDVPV

[27] = tested on: CAKI-1; test: NCI cytotoxicity screen; type: cell-based, human; conditions: 10.0 μM one dose
[28] = tested on: MCF7; test: NCI cytotoxicity screen; type: cell-based, human; conditions: 10.0 μM one dose; MCF-7
[29] = target: T1, COX-2 (Ovis aries, UniProt P79208); test: Colorimetric COX; type: biochemical, ovine
T1 sequence (P79208 17-603): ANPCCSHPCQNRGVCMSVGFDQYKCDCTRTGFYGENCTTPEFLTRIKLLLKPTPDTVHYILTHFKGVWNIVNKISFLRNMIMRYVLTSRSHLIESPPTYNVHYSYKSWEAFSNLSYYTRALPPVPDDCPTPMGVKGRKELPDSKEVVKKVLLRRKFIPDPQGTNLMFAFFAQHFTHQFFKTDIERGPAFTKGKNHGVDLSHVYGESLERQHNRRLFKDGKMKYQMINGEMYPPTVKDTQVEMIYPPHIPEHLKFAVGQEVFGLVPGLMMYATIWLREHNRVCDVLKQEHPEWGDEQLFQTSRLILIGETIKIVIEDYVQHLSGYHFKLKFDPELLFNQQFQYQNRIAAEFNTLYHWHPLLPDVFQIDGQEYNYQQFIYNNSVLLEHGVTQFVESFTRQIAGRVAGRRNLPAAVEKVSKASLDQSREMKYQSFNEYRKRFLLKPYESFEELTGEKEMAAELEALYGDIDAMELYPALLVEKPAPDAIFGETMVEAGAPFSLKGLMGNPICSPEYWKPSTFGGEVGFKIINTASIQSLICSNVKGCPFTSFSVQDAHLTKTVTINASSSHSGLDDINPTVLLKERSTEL

[30] = tested on: MDA-MB-468; test: NCI cytotoxicity screen; type: cell-based, human; conditions: 10.0 μM one dose
[31] = tested on: 59 cancer cell lines; test: NCI cytotoxicity screen, full panel; type: cell-based, human; conditions: 10.0 μM one dose, 59 cell lines
[32] = tested on: PC-3; test: NCI cytotoxicity screen; type: cell-based, human; conditions: 10.0 μM one dose
[33] = tested on: SR; test: NCI cytotoxicity screen; type: cell-based, human; conditions: 10.0 μM one dose
[34] = tested on: A498; test: NCI cytotoxicity screen; type: cell-based, human; conditions: 10.0 μM one dose; A-498
[35] = tested on: U251; test: NCI cytotoxicity screen; type: cell-based, human; conditions: 10.0 μM one dose; U-251
[36] = tested on: RPMI-8226; test: NCI cytotoxicity screen; type: cell-based, human; conditions: 10.0 μM one dose
[37] = tested on: NCI-H23; test: NCI cytotoxicity screen; type: cell-based, human; conditions: 10.0 μM one dose
[38] = tested on: SF-539; test: NCI cytotoxicity screen; type: cell-based, human; conditions: 10.0 μM one dose
[39] = tested on: SF-295; test: NCI cytotoxicity screen; type: cell-based, human; conditions: 10.0 μM one dose
[40] = tested on: Ovarian cancer subpanel tumor cell lines; test: NCI cytotoxicity screen, subpanel; type: cell-based, human; conditions: 10 μM; range over ovarian cancer cell lines
[41] = tested on: DU-145; test: NCI cytotoxicity screen; type: cell-based, human; conditions: 10.0 μM one dose
[42] = tested on: HCT-116; test: NCI cytotoxicity screen; type: cell-based, human; conditions: 10.0 μM one dose

`Cc1ccc(C=NNC(=O)CSc2nc3ccccc3c(=O)n2Cc2ccc(S(N)(=O)=O)cc2)cc1` [Compound 9, 4-((2-((2-(2-(4-Methylbenzylidene)hydrazineyl)-2-oxoethyl)thio)-4-oxoquinazolin-3(4H)-yl)methyl)benzenesulfonamide] gave a GI % [1] of 54%, a GI % [2] of 20% and a GI % [3] of 22%. For the same compound, the GI % [4] was 14%, the GI % [5] was 18% and the GI % [6] was 14%. For the same compound, the GI % [7] was 15%, the GI % [8] was 19% and the IC50 [9] was 316 ± 7.76 nM. The GI % [10] was 16%, the GI % [11] was 26% and the GI % [12] was 21%. It also gave a GI % [13] of 11%, an IC50 [14] of 378 ± 9.26 nM and a GI % [15] of 37%. It also gave a GI % [16] of 22%, a GI % [17] of 13% and a GI % [18] of 29%. It also gave a GI % [19] of 11%, a GI % [20] of 11% and a GI % [21] of 58%. The GI % [22] was 10%, the GI % [23] was 14% and the GI % [24] was 12%. For the same compound, the GI % [25] was 14%, the IC50 [26] was 229 nM and the GI % [27] was 36%. For the same compound, the GI % [28] was 41%, the IC50 [29] was 15400 ± 320 nM and the GI % [30] was 19%. The “MG% (mean growth percent)” value [31] was 88.5%, the GI % [32] was 11% and the GI % [33] was 51%.
`Cc1ccc(NC(=O)c2ccc(CN3CCN(C)CC3)cc2)cc1Nc1nccc(-c2cccnc2)n1` [Imatinib, reference compound] showed a GI % [34] of 13.7%, a GI % [35] of 10.6% and a GI % [5] of 11.6%. The GI % [6] was 47.1%, the GI % [8] was 18.6% and the GI % [10] was 10.6%. It also gave a GI % [13] of 11.2%, a GI % [36] of 12.6% and a GI % [20] of 11.5%. For the same compound, the GI % [37] was 17.1%, the GI % [22] was 15.7% and the GI % [23] was 18%. The GI % [38] was 24.5%, the GI % [39] was 15.1% and the GI % [30] was 29.1%. The GI % [40] was < 10%, the GI % [41] was 14.4% and the GI % [42] was 18.6%. The “MG% (mean growth percent)” value [31] was 92.62%, the “MG% (mean growth percent)” value ([31]; listed as imatinib) was 92.6% and the GI % [32] was 10.6%. For the same compound, the GI % [33] was 14.6%.
